Type in all cases: functional, cell-based
Conditions in all cases: Homo sapiens, T-cell

The nature of test [1]: pIC50 value for stimulation of TNF-alpha release in gamma-delta T cells, using a constrained maximum TNF-alpha release of 2700 pg/mL.
The nature of test [2]: Inhibitory activity, for stimulation of TNF-alpha release in gamma-delta T cells, using a constrained maximum TNF-alpha release of 2700 pg/mL.
The nature of test [3]: pIC50 value for stimulation of TNF-alpha release in gamma-delta T cells, using individual observed maximum TNF-alpha release.
A short description of test [4]: Inhibitory activity, for stimulation of TNF-alpha release in gamma-delta T cells, using individual observed maximum TNF-alpha release.

In general, IC50 refers to the concentration that gives 50% inhibition.

Take `CN(C)CCCC(P(=O)(O)O)P(=O)(O)O`: the IC50 in test [1] is 398 µM; in test [2] it was 400 µM.

Take `O=P(O)(O)C(NCc1ccc(F)cc1)P(=O)(O)O`: the results for the IC50 in test [1] and in test [2] were 63.1 µM and 63 µM, respectively.

As for `O=P(O)(O)C(Sc1ccccn1)P(=O)(O)O`, the IC50 was 67.6 µM in test [1] and 67 µM in test [2].

In the case of `CCC1CCCCN1C(P(=O)(O)O)P(=O)(O)O` (centres undefined), the 50% inhibitory concentration (IC50) in test [1] and in test [2] was 1200 µM in each case.

In the case of `O=[N+]([O-])c1cccc(CC(O)(P(=O)(O)O)P(=O)(O)O)c1`, the IC50 in test [1] and in test [2] was 110 µM throughout.

Regarding `CC1CCN(C(P(=O)(O)O)P(=O)(O)O)CC1`, the results for the IC50 in test [1] and in test [2] were 23.4 µM and 24 µM, respectively.

Turning to `Cc1cc(Br)cnc1NC(P(=O)(O)O)P(=O)(O)O`, the figures for the IC50 in test [1] and in test [2] were 72.4 µM and 72 µM, respectively.

Take `CC(CCCCc1ccccc1)CCC(O)(P(=O)(O)O)P(=O)(O)O` (centres undefined): the IC50 in test [3] is 10 µM; in test [4] it was 9.9 µM; in test [1], 16.2 µM; in test [2], 16 µM.

Consider `CC1CCCC(C)N1C(P(=O)(O)O)P(=O)(O)O` (centres undefined), for which the IC50 was 1660 µM in test [1] and 1650 µM in test [2].

Take `Cc1cccc(CC(O)(P(=O)(O)O)P(=O)(O)O)c1`: the figures for the IC50 in test [1] and in test [2] were 8910 µM and 9020 µM, respectively.

As to `CC1CCCN(C(P(=O)(O)O)P(=O)(O)O)C1` (centres undefined), the figures for the IC50 in test [1] and in test [2] were 347 µM and 348 µM, respectively.

For the molecule `O=P(O)(O)C(Nc1ccccn1)P(=O)(O)O`, the IC50 in test [3] is 7.41 µM; in test [4], 7.4 µM; in test [1], 15.5 µM; in test [2], 16 µM.

Consider `O=P(O)(O)C(O)(CCc1cccnc1)P(=O)(O)O`, for which the IC50 is 229 µM in test [3], 228 µM in test [4], 912 µM in test [1] and 917 µM in test [2].

Turning to `O=P(O)(O)C(CNc1ccncc1)P(=O)(O)O`, the IC50 in test [3] is 10 µM; in test [4] it was 9.9 µM; in test [1], 16.2 µM; in test [2], 16 µM.

Take `O=P(O)(O)C(CNc1ccccn1)P(=O)(O)O`: the IC50 was 4.9 µM in test [3], 4.8 µM in test [4], 14.5 µM in test [1] and 14 µM in test [2].

With `NCCCCC(O)(P(=O)(O)O)P(=O)(O)O`, the half-maximal inhibitory concentration (IC50) in test [3] is 102 µM; in test [4] it was 102 µM; in test [1], 214 µM; in test [2], 213 µM.

As for `CCCCCC(O)(P(=O)(O)O)P(=O)(O)O`, the IC50 in test [3] is 91.2 µM; in test [4], 90 µM; in test [1], 1620 µM; in test [2], 1610 µM.

For `O=P(O)(O)C(Nc1cccnc1)P(=O)(O)O`, the IC50 in test [3] was 14.5 µM; in test [4], 14 µM; in test [1] it was 24 µM; in test [2], 24 µM.

For `CN(CCc1ccccc1)CCC(O)(P(=O)(O)O)P(=O)(O)O`, the half-maximal inhibitory concentration (IC50) was 19.5 µM in test [3], 19 µM in test [4], 22.9 µM in test [1] and 23 µM in test [2].

As for `O=P(O)(O)C(O)(Cc1c[nH]cn1)P(=O)(O)O`, the half-maximal inhibitory concentration (IC50) was 7.76 µM in test [3], 7.8 µM in test [4], 12 µM in test [1] and 12 µM in test [2].

In the case of `O=P(O)(O)C(O)(CCNCCCOc1ccccc1)P(=O)(O)O`, the IC50 in test [3] was 97.7 µM; in test [4] it was 98 µM; in test [1] it was 141 µM; in test [2], 143 µM.

In the case of `CC(C)(C)c1cccc(NC(P(=O)(O)O)P(=O)(O)O)c1`, the 50% inhibitory concentration (IC50) in test [1] is 25100 µM; in test [2], 25200 µM.

On to `O=P(O)(O)C(O)(Cn1ccnn1)P(=O)(O)O`, for which the IC50 in test [1] was 2090 µM; in test [2], 2070 µM.

`CC1CCCCN1C(P(=O)(O)O)P(=O)(O)O` (centres undefined): the IC50 in test [1] is 2750 µM; in test [2] it was 2740 µM.

With `O=P(O)(O)C(O)(C[n+]1cc[nH]c1)P(=O)(O)O`, the figures for the IC50 in test [3] and in test [4] were 5.25 µM and 5.2 µM, respectively.

Consider `CCN(C1CCCCC1)C(P(=O)(O)O)P(=O)(O)O`, for which the IC50 in test [1] was 102 µM; in test [2], 103 µM.

For `Nc1ccc(CC(O)(P(=O)(O)O)P(=O)(O)O)cc1`, the 50% inhibitory concentration (IC50) in test [3] is 251 µM; in test [4], 251 µM; in test [1], 20000 µM; in test [2], 19900 µM.

For the molecule `O=P(O)(O)C(O)(Cc1ccccn1)P(=O)(O)O`, the IC50 is 5.75 µM in test [3], 5.7 µM in test [4], 5.62 µM in test [1] and 5.6 µM in test [2].

Take `O=P(O)(O)C(N1CCCCC1)P(=O)(O)O`: the IC50 in test [3] was 66.1 µM; in test [4], 66 µM; in test [1], 120 µM; in test [2] it was 122 µM.

Take `CN(CCCc1ccccc1)CCC(O)(P(=O)(O)O)P(=O)(O)O`: the IC50 in test [3] was 63.1 µM; in test [4] it was 63 µM; in test [1] it was 120 µM; in test [2], 121 µM.

As for `Cc1cccnc1NC(P(=O)(O)O)P(=O)(O)O`, the IC50 is 4.37 µM in test [3], 4.3 µM in test [4], 4.9 µM in test [1] and 4.9 µM in test [2].

With `CCCCCCC(O)(P(=O)(O)O)P(=O)(O)O`, the IC50 was 214 µM in test [3], 213 µM in test [4], 2090 µM in test [1] and 2110 µM in test [2].

For the molecule `CC(N)CC(O)(P(=O)(O)O)P(=O)(O)O` (centres undefined), the IC50 in test [3] was 63.1 µM; in test [4] it was 63 µM; in test [1], 110 µM; in test [2] it was 110 µM.

As to `Cc1ccnc(NC(P(=O)(O)O)P(=O)(O)O)c1`, the IC50 is 12.6 µM in test [3], 13 µM in test [4], 14.5 µM in test [1] and 14 µM in test [2].

In the case of `O=P(O)(O)C(O)(Cc1ccncc1)P(=O)(O)O`, the half-inhibitory concentration (IC50) is 21.4 µM in test [3], 22 µM in test [4], 20.9 µM in test [1] and 21 µM in test [2].

In the case of `Cc1cccc(NC(P(=O)(O)O)P(=O)(O)O)n1`, the IC50 in test [3] was 12 µM; in test [4], 12 µM; in test [1], 28.2 µM; in test [2], 28 µM.

For the molecule `CCC(C)CNC(P(=O)(O)O)P(=O)(O)O` (centres undefined), the IC50 is 8.91 µM in test [3], 9 µM in test [4], 19.5 µM in test [1] and 19 µM in test [2].

Take `O=P(O)(O)C(O)(Cc1ccccc1)P(=O)(O)O`: the IC50 was 398 µM in test [3], 395 µM in test [4], 2820 µM in test [1] and 2820 µM in test [2].

Turning to `O=P(O)(O)C(Cc1cccnc1)P(=O)(O)O`, the IC50 in test [1] is 10.5 µM; in test [2], 10 µM.

Take `CCCCNC(P(=O)(O)O)P(=O)(O)O` [(BUTYLAMINO)METHYLENEDIPHOSPHONIC ACID]: the half-maximal inhibitory concentration (IC50) in test [3] was 10.2 µM; in test [4], 10 µM; in test [1], 12.9 µM; in test [2], 13 µM.

As for `O=P(O)(O)C(NC1CCC1)P(=O)(O)O` [(CYCLOBUTYLAMINO)METHYLENEDIPHOSPHONIC ACID], the half-inhibitory concentration (IC50) was 56.2 µM in test [3], 56 µM in test [4], 126 µM in test [1] and 127 µM in test [2].

Consider `O=P(O)(O)C(NC1CCCCC1)P(=O)(O)O` [(CYCLOHEXYLAMINO)METHYLENEDIPHOSPHONIC ACID], for which the IC50 in test [3] is 39.8 µM; in test [4], 40 µM; in test [1], 46.8 µM; in test [2] it was 47 µM.

As for `O=P(O)(O)C(NC1CCCCCCC1)P(=O)(O)O` [(CYCLOOCTYLAMINO)METHYLENEDIPHOSPHONIC ACID], the IC50 in test [3] was 43.7 µM; in test [4] it was 44 µM; in test [1] it was 110 µM; in test [2] it was 110 µM.

Regarding `O=P(O)(O)C(NC1CCCC1)P(=O)(O)O` [(CYCLOPENTYLAMINO)METHYLENEDIPHOSPHONIC ACID], the IC50 in test [3] was 25.1 µM; in test [4] it was 25 µM; in test [1], 55 µM; in test [2] it was 55 µM.

Turning to `CCN(CC)C(P(=O)(O)O)P(=O)(O)O` [(DIETHYLAMINO)METHYLENEDIPHOSPHONIC ACID], the IC50 is 132 µM in test [3], 132 µM in test [4], 2880 µM in test [1] and 2910 µM in test [2].

Take `CCCN(CCC)C(P(=O)(O)O)P(=O)(O)O` [(DIPROPYLAMINO)METHYLENEDIPHOSPHONIC ACID]: the IC50 in test [3] was 40.7 µM; in test [4] it was 41 µM; in test [1], 83.2 µM; in test [2] it was 83 µM.

For `CC(C)CCNC(P(=O)(O)O)P(=O)(O)O` [(ISOPENTYLAMINO)METHYLENEDIPHOSPHONIC ACID], the half-inhibitory concentration (IC50) was 39.8 µM in test [3], 40 µM in test [4], 46.8 µM in test [1] and 47 µM in test [2].

For `CCCCCCCCCNC(P(=O)(O)O)P(=O)(O)O` [(NONYLAMINO)METHYLENEDIPHOSPHONIC ACID], the IC50 in test [3] was 66.1 µM; in test [4], 66 µM; in test [1] it was 170 µM; in test [2], 169 µM.

For the molecule `CCCCCNC(P(=O)(O)O)P(=O)(O)O` [(PENTYLAMINO)METHYLENEDIPHOSPHONIC ACID], the IC50 in test [3] was 7.76 µM; in test [4] it was 7.8 µM; in test [1], 40.7 µM; in test [2] it was 41 µM.

Regarding `CCCNC(P(=O)(O)O)P(=O)(O)O` [(PROPYLAMINO)METHYLENEDIPHOSPHONIC ACID], the IC50 in test [3] is 18.2 µM; in test [4] it was 18 µM; in test [1], 34.7 µM; in test [2], 35 µM.

`NCCCC(O)(P(=O)(O)O)P(=O)(O)O` [ALENDRONIC ACID]: the IC50 in test [3] is 53.7 µM; in test [4] it was 53 µM; in test [1], 52.5 µM; in test [2] it was 52 µM.

As to `O=P(O)(O)C(N1CCCCCCC1)P(=O)(O)O` [N-(HEPTAMETHYLENEIMINO)METHYLENEBISPHOSPHONIC ACID], the IC50 was 67.6 µM in test [1] and 68 µM in test [2].

For the origin of these results see ChEMBL document CHEMBL1148380, “Quantitative structure-activity relationships for gammadelta T cell activation by bisphosphonates” (J Med Chem, 2004).
